Assay results published in US20260250318A1, “COMPOSITIONS AND METHODS FOR CROSSING THE BLOOD BRAIN BARRIER” (VOYAGER THERAPEUTICS, INC., priority 2022, published 2026).

How the values were obtained:
[1] = system: brain, spinal cord, and DRG of the NHPs; assay: NGS fold enrichment of synthetic library (passage 3) in NHPs, first cross-species screen; format: in vivo, cynomolgus macaques (Macaca fascicularis); details: synthetic library passage 3, intravenous, relative to wild-type AAV9
Method in brief: (§1)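 Passage-3 synthetic capsid library given intravenously […] to NHPs (2-4 years) and BALB/c or C57Bl/6 mice (n=3, 6-8 weeks). After e.g. 28 days, tissue RNA was RT-PCR amplified and NGS-sequenced; values are fold enrichment of each variant relative to wild-type AAV9.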

[2] = system: brain; assay: NGS fold enrichment of synthetic library (passage 3) in BALB/c mice, first cross-species screen; format: in vivo; details: synthetic library passage 3, intravenous, relative to wild-type AAV9
Method in brief: as §1

[3] = system: brain; assay: NGS fold enrichment of synthetic library (passage 3) in C57Bl/6 mice, first cross-species screen; format: in vivo; details: synthetic library passage 3, intravenous, relative to wild-type AAV9
Method in brief: as §1

[4] = system: brain; assay: Matured TTM-001 and TTM-002 variants, NGS enrichment in mouse brain; format: in vivo, mice; details: relative to AAV9 control
[5] = system: brains, heart, liver, muscle, and DRG of the NHPs; assay: Maturation of TTM-001 and TTM-002 capsids, NGS enrichment in NHP tissues; format: in vivo; details: relative to AAV9 control
Method in brief: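 Variants carry mutations within and flanking the loop IV peptide insert: positions 450–466 were triplet-randomized, while positions 449–466 received low-frequency point mutations. The combined pool went into two NHPs, and each peptide was scored by NGS enrichment ratio against AAV9.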

[6] = NGS fold-enrichment, brain of mice
[7] = NGS fold-enrichment, DRG of NHPs
[8] = NGS fold-enrichment, RNA, brain of NHPs
[9] = NGS fold-enrichment, heart of NHPs
[10] = NGS fold-enrichment, liver DNA of NHPs
[11] = NGS fold-enrichment, liver RNA of NHPs
[12] = NGS fold-enrichment, muscle of NHPs
[13] = NGS fold-enrichment, mouse brain
[14] = NGS fold-enrichment of RNA, NHP brain
[15] = NGS fold-enrichment, NHP liver DNA
[16] = NGS fold-enrichment, NHP liver RNA
[17] = NGS fold-enrichment, NHP muscle
[18] = NGS fold-enrichment of matured AAV capsid variants, NHP brain, RNA

Sequence: GWERSFVSGQNQQT
- Fold enrichment over AAV9 in the brain of NHPs ([1]; RNA NGS, brain of NHPs): 1.492 fold
- Fold enrichment over AAV9 in the spinal cord of NHPs ([1]; RNA NGS, spinal cord of NHPs): 0.943 fold
- Fold enrichment over AAV9 in the brain of Mice (BALB/c) ([2]; RNA NGS, brain of BALB/c mice): 0.538 fold
- Fold enrichment over AAV9 in the brain of Mice (C57Bl/6) ([3]; RNA NGS, brain of C57Bl/6 mice): 0.490 fold

Sequence: GYEVLGSSGQNQQT
- Fold enrichment over AAV9 in the brain of NHPs ([1]; RNA NGS, brain of NHPs): 2.891 fold
- Fold enrichment over AAV9 in the spinal cord of NHPs ([1]; RNA NGS, spinal cord of NHPs): 0.000 fold
- Fold enrichment over AAV9 in the brain of Mice (BALB/c) ([2]; RNA NGS, brain of BALB/c mice): 0.319 fold
- Fold enrichment over AAV9 in the brain of Mice (C57Bl/6) ([3]; RNA NGS, brain of C57Bl/6 mice): 2.459 fold

Sequence: GYFVAAWSGQNQQT
- Fold enrichment over AAV9 in the brain of NHPs ([1]; RNA NGS, brain of NHPs): 4.488 fold
- Fold enrichment over AAV9 in the spinal cord of NHPs ([1]; RNA NGS, spinal cord of NHPs): 0.000 fold
- Fold enrichment over AAV9 in the brain of Mice (BALB/c) ([2]; RNA NGS, brain of BALB/c mice): 0.175 fold
- Fold enrichment over AAV9 in the brain of Mice (C57Bl/6) ([3]; RNA NGS, brain of C57Bl/6 mice): 0.071 fold

Sequence: GYTRLETSGQNQQT
- Fold enrichment over AAV9 in the brain of NHPs ([1]; RNA from brain of NHPs, NGS): 1.250 fold
- Fold enrichment over AAV9 in the spinal cord of NHPs ([1]; RNA from spinal cord of NHPs, NGS): 1.323 fold
- Fold enrichment over AAV9 in the brain of Mice (BALB/c) ([2]; RNA from brain of BALB/c mice, NGS): 0.297 fold
- Fold enrichment over AAV9 in the brain of Mice (C57Bl/6) ([3]; RNA from brain of C57Bl/6 mice, NGS): 0.841 fold

Sequence: KAEHGSGSPHSKAQNQQT
- Fold Enrichment relative to AAV9, Brain (Mouse) [4, 6]: 116.201 fold
- Fold Enrichment relative to AAV9, DRG (NHP) [5, 7]: 0.000 fold
- Fold Enrichment relative to AAV9, Brain (NHP) [5, 8]: 61.830 fold
- Fold Enrichment relative to AAV9, Heart (NHP) [5, 9]: 0.000 fold
- Fold Enrichment relative to AAV9, Liver DNA (NHP) [5, 10]: 0.184 fold
- Fold Enrichment relative to AAV9, Liver RNA (NHP) [5, 11]: 0.772 fold
- Fold Enrichment relative to AAV9, Muscle (NHP) [5, 12]: 0.000 fold

Sequence: KAEMGSGSPHSKAQNQQT
- Fold Enrichment relative to AAV9, Brain (Mouse) [4, 6]: 135.019 fold
- Fold Enrichment relative to AAV9, Brain (Mouse) [4, 13]: 135.019 fold
- Fold Enrichment relative to AAV9, Brain (NHP) [5, 14]: 83.049 fold
- Fold Enrichment relative to AAV9, DRG (NHP) [5, 7]: 0.000 fold
- Fold Enrichment relative to AAV9, DRG (NHP) ([5]; NGS fold-enrichment, NHP DRG): 0.000 fold
- Fold Enrichment relative to AAV9, Heart (NHP) ([5]; NGS fold-enrichment, NHP heart): 0.020 fold
- Fold Enrichment relative to AAV9, Liver DNA (NHP) [5, 15]: 0.112 fold
- Fold Enrichment relative to AAV9, Liver RNA (NHP) [5, 16]: 0.768 fold
- Fold Enrichment relative to AAV9, Muscle (NHP) [5, 17]: 0.000 fold
- Fold Enrichment relative to AAV9, Brain (NHP) [5, 8]: 83.049 fold
- Fold Enrichment relative to AAV9, Heart (NHP) [5, 9]: 0.020 fold
- Fold Enrichment relative to AAV9, Liver DNA (NHP) [5, 10]: 0.112 fold
- Fold Enrichment relative to AAV9, Liver RNA (NHP) [5, 11]: 0.768 fold
- Fold Enrichment relative to AAV9, Muscle (NHP) [5, 12]: 0.000 fold

Sequence: KAENGSGSPHSKAQNQQT
- Fold Enrichment relative to AAV9, Brain (Mouse) ([4]; mouse brain): 120.256 fold
- Fold Enrichment relative to AAV9, Brain (NHP) [5, 18]: 52.487 fold
- Fold Enrichment relative to AAV9, DRG (NHP) ([5]; NHP DRG): 0.000 fold
- Fold Enrichment relative to AAV9, Heart (NHP) ([5]; NHP heart): 0.157 fold
- Fold Enrichment relative to AAV9, Liver DNA (NHP) ([5]; NHP liver, DNA): 0.242 fold
- Fold Enrichment relative to AAV9, Liver RNA (NHP) ([5]; NHP liver, RNA): 0.000 fold
- Fold Enrichment relative to AAV9, Muscle (NHP) ([5]; NHP muscle): 0.029 fold

Sequence: KAETGSGSPHSKAQNQQT
- Fold Enrichment relative to AAV9, Brain (Mouse) ([4]; mouse brain): 132.940 fold
- Fold Enrichment relative to AAV9, Brain (NHP) [5, 18]: 52.219 fold
- Fold Enrichment relative to AAV9, DRG (NHP) ([5]; NHP DRG): 0.000 fold
- Fold Enrichment relative to AAV9, Heart (NHP) ([5]; NHP heart): 0.047 fold
- Fold Enrichment relative to AAV9, Liver DNA (NHP) ([5]; NHP liver, DNA): 0.188 fold
- Fold Enrichment relative to AAV9, Liver RNA (NHP) ([5]; NHP liver, RNA): 0.009 fold
- Fold Enrichment relative to AAV9, Muscle (NHP) ([5]; NHP muscle): 0.581 fold

Sequence: KAIIGHESPHKSGQNQQT
- Fold Enrichment relative to AAV9, Brain (Mouse) [4, 13]: 8.530 fold
- Fold Enrichment relative to AAV9, Brain (NHP) [5, 14]: 88.563 fold
- Fold Enrichment relative to AAV9, DRG (NHP) ([5]; NGS fold-enrichment, NHP DRG): 0.000 fold
- Fold Enrichment relative to AAV9, Heart (NHP) ([5]; NGS fold-enrichment, NHP heart): 0.150 fold
- Fold Enrichment relative to AAV9, Liver DNA (NHP) [5, 15]: 0.145 fold
- Fold Enrichment relative to AAV9, Liver RNA (NHP) [5, 16]: 0.062 fold
- Fold Enrichment relative to AAV9, Muscle (NHP) [5, 17]: 0.000 fold

Sequence: KAIKGSGSPHSKAQDQQT
- Fold Enrichment relative to AAV9, Brain (Mouse) [4, 6]: 85.178 fold
- Fold Enrichment relative to AAV9, Brain (Mouse) [4, 13]: 85.178 fold
- Fold Enrichment relative to AAV9, Brain (NHP) [5, 14]: 82.258 fold
- Fold Enrichment relative to AAV9, DRG (NHP) [5, 7]: 0.000 fold
- Fold Enrichment relative to AAV9, DRG (NHP) ([5]; NGS fold-enrichment, NHP DRG): 0.000 fold
- Fold Enrichment relative to AAV9, Heart (NHP) ([5]; NGS fold-enrichment, NHP heart): 0.000 fold
- Fold Enrichment relative to AAV9, Liver DNA (NHP) [5, 15]: 0.000 fold
- Fold Enrichment relative to AAV9, Liver RNA (NHP) [5, 16]: 0.108 fold
- Fold Enrichment relative to AAV9, Muscle (NHP) [5, 17]: 0.000 fold
- Fold Enrichment relative to AAV9, Brain (NHP) [5, 8]: 82.258 fold
- Fold Enrichment relative to AAV9, Heart (NHP) [5, 9]: 0.000 fold
- Fold Enrichment relative to AAV9, Liver DNA (NHP) [5, 10]: 0.000 fold
- Fold Enrichment relative to AAV9, Liver RNA (NHP) [5, 11]: 0.108 fold
- Fold Enrichment relative to AAV9, Muscle (NHP) [5, 12]: 0.000 fold

Sequence: KAINGHDNPHKSGQNQQT
- Fold Enrichment relative to AAV9, Brain (Mouse) [4, 13]: 9.702 fold
- Fold Enrichment relative to AAV9, Brain (NHP) [5, 14]: 88.906 fold
- Fold Enrichment relative to AAV9, DRG (NHP) ([5]; NGS fold-enrichment, NHP DRG): 0.297 fold
- Fold Enrichment relative to AAV9, Heart (NHP) ([5]; NGS fold-enrichment, NHP heart): 0.721 fold
- Fold Enrichment relative to AAV9, Liver DNA (NHP) [5, 15]: 0.130 fold
- Fold Enrichment relative to AAV9, Liver RNA (NHP) [5, 16]: 0.222 fold
- Fold Enrichment relative to AAV9, Muscle (NHP) [5, 17]: 0.482 fold

Sequence: KAINGHDSPHKSAQNQET
- Fold Enrichment relative to AAV9, Brain (Mouse) [4, 13]: 10.674 fold
- Fold Enrichment relative to AAV9, Brain (NHP) [5, 14]: 90.402 fold
- Fold Enrichment relative to AAV9, DRG (NHP) ([5]; NGS fold-enrichment, NHP DRG): 0.000 fold
- Fold Enrichment relative to AAV9, Heart (NHP) ([5]; NGS fold-enrichment, NHP heart): 0.073 fold
- Fold Enrichment relative to AAV9, Liver DNA (NHP) [5, 15]: 0.000 fold
- Fold Enrichment relative to AAV9, Liver RNA (NHP) [5, 16]: 0.746 fold
- Fold Enrichment relative to AAV9, Muscle (NHP) [5, 17]: 0.000 fold
